For six compounds, IC50, AUC(0-t) and Cmax results are on record in patent EP4793275A1, “AT2R ANTAGONIST AND USE THEREOF” (Hubei Bio-Pharmaceutical Industrial Technological Institute …, priority 2023, dated 2025).

One data set addresses T1, AT2R (Homo sapiens, UniProt P50052).
T1 construct: purchased Cisbio C1TT1AT2
T1 sequence (P50052 1-363): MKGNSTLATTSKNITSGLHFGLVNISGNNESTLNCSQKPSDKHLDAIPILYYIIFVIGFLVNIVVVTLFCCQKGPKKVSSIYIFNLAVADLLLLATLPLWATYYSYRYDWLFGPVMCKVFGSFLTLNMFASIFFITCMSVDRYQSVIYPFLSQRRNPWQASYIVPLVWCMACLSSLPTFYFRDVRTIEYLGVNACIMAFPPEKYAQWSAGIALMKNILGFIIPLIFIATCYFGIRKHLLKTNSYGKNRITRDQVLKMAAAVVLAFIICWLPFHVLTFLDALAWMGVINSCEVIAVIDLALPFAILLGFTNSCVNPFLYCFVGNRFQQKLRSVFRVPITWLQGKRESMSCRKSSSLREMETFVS
Description: Binding assay of compounds to AT2R (Tag-lite HTRF ligand binding kit). Particulars: labeled cells, Tag-lite red fluorescent labeled ligand, 1 hour at room temperature. How it is done:
The assay was performed in accordance with the manufacturer instructions of Angiotensin AT2 Receptor Ligand Binding Assay Kit (#C1TT1AT2, Cisbio). First, a 10 mM compound stock solution was diluted in a gradient at a 5× dilution ratio (including 10 concentrations, each with two replicates). 160 nL of compounds at different concentrations was added to a 384-well plate. 40 µL of 1× TLB was added to each well, and the mixture was shaken at room temperature for 15 minutes. A 15 mL centrifuge tube added with 5 mL of 1×TLB was prepared in advance. The frozen labeled cells were thawed in a water bath at 37°C (for 1 to 2 minutes), and the thawed cells were quickly transferred to the above 15 mL centrifuge tube. The mixture was mixed well and centrifuged at 1,000 g at room temperature for 5 minutes. The supernatant was removed, and the cells were resuspended by adding 2.7 mL 1× TLB. A new 384-well plate was taken, and 10 µL of mixed cells were added into the corresponding wells according to the assay design. 5 µL of 4× compound solution and 5 µL of 4× Tag-lite red fluorescent labeled ligand were added to each well. After incubation at room temperature for 1 hour, data was read using EnVision with an HTRF mode. The excitation light intensities at 665nM and 615nM in each well were read respectively, and the ratio was calculated (Ratio=A665nM/B615nM). The IC50 value was calculated by means of GraphPad Prism8 software, where X represents logarithmic value of compound concentration; and Y represents ratio of A665nM/B615nM. [Table 1] Binding activity of compounds to AT2R
In general terms: TR-FRET usually uses a lanthanide donor and a delayed reading to cut background.

A short description of data set [1]: Pharmacokinetic test in rats. The format is in vivo. To be noted: rat; male SD rats, oral administration by gavage, 10 mg/kg, plasma. How it is done:
For the pharmacokinetic test of rats, 3 male SD rats (180 g to 240 g) were employed and fasted overnight. The rats were orally administered a dose of 10 mg/kg by gavage. Blood was collected before the administration, and at 15 minutes, 30 minutes, 1 hour, 2 hours, 4 hours, 6 hours, 8 hours, and 24 hours after the administration. The blood samples were centrifuged at 8,000 rpm and at 4°C for 6 minutes, and plasma was collected and stored at -20°C. The plasma at each time point was taken and mixed with 3 to 5 volumes of an acetonitrile solution containing an internal standard. The mixture was vortexed for 1 minute, and centrifuged at 13,000 rpm and at 4°C for 10 minutes. The supernatant was collected and mixed with 3 volumes of water. An appropriate amount of the mixture was taken for LC-MS/MS analysis. The main pharmacokinetic parameters were analyzed by a non-compartmental model using WinNonlin 7.0 software. [Table 2] Results of Pharmacokinetic Test in Rats

Another data set concerns the target T2, hERG potassium channel (Homo sapiens, UniProt Q12809).
T2 construct: host or cells: HEK-293
Description: Effects on hERG channel currents by manual patch-clamp. To be noted: HEK-293 cell line stably expressing hERG potassium channel, tail current, room temperature; read-out: IC50 (inhibitory effects on hERG). It is filed as cell-based. Here is the method: A manual patch-clamp assay was conducted using an HEK-293 cell line stably expressing an hERG potassium channel. hERG potassium channel cells were purchased from Creacell Co., Ltd. (catalog No.: A-0320). Final concentrations of test compounds were freshly prepared on the day of the assay, and then the test compounds were dissolved in an extracellular solution. The extracellular solution (mM) was: […], 3.5 mM KCl, 1 mM MgCl2·6H2O, 2 mM CaCl2·2H2O, 10 mM D-Glucose, 10 mM HEPES, 1.25 mM NaH2PO4·2H2O; pH 7.4 (titrated with NaOH). An intracellular solution (mM) was: 20 mM KCl, 115 mM K-Aspartic, 1 mM MgCl2·6H2O, 5 mM EGTA, 10 mM HEPES, 2 mM Na2-ATP; pH 7.4 (titrated with KOH).
Electrophysiological Assay: After whole-cell patch-clamp formation, the cell membrane potential was clamped at -80 mV. The holding potential was depolarized to -50 mV from -80 mV and maintained for 0.5 seconds (for leak current detection), then stepped to 30 mV for 2.5 seconds, and then rapidly repolarized back to -50 mV for 4 seconds to elicit a tail current of the hERG channel. Data was collected repeatedly every 10 seconds to observe the effects of the drug on hERG tail current (Peak tail currentcompound). A stimulation at -50 mV for 0.5 seconds was used for the leak current detection. Drug administration was initiated after the hERG current recorded in the whole-cell configuration stabilized. After each drug concentration was applied for 5 minutes (or until the current stabilized), the next concentration was tested. One or more concentrations were tested for each test compound. A current detected in each cell in a compound-free extracellular solution (Peak tail currentControl) served as an internal control for the corresponding cell. […]
Data Analysis: The inhibition rate corresponding to each drug concentration was calculated (1-(Peak tail currentcompound/Peak tail currentControl)), and the concentration-response curves were fitted using nonlinear regression in GraphPad Prism software. The IC50 value of each compound was calculated using the following equation: Y=1/(1+10^((LogIC50-X)×HillSlope)). […]
(In general: hERG is a cardiac potassium channel; its block is linked to QT prolongation.)

The nature of data set [2]: Pharmacokinetic test in canines. The format is in vivo. Particulars: dog; male Beagle canines, oral gavage, 5 mg/kg, plasma. Here is the method:
For the pharmacokinetic test of canines, 3 male Beagle canines (10 kg to 12 kg) were employed and fasted overnight. The canines were orally administered a dose of 5 mg/kg by gavage. Blood was collected before the administration, and at 5 minutes, 15 minutes, 30 minutes, 1 hour, 2 hours, 4 hours, 6 hours, 8 hours, and 24 hours after the administration. The blood samples were centrifuged at 6,000 g and at 2°C to 8°C for 3 minutes, and plasma was collected and stored at -20°C. The plasma at each time point was taken and mixed with 10 volumes of a 50% methanol in acetonitrile solution containing an internal standard. The mixture was vortexed for 5 minutes, and centrifuged at 4,000 rpm and at 4°C for 5 minutes. The supernatant was collected and mixed with 1 volume of water. An appropriate amount of the mixture was taken for LC-MS/MS analysis. The main pharmacokinetic parameters were analyzed by a non-compartmental model using WinNonlin 7.0 software. [Table 3] Results of Pharmacokinetic Test in Canines

T2 sequence (Q12809 whole entry): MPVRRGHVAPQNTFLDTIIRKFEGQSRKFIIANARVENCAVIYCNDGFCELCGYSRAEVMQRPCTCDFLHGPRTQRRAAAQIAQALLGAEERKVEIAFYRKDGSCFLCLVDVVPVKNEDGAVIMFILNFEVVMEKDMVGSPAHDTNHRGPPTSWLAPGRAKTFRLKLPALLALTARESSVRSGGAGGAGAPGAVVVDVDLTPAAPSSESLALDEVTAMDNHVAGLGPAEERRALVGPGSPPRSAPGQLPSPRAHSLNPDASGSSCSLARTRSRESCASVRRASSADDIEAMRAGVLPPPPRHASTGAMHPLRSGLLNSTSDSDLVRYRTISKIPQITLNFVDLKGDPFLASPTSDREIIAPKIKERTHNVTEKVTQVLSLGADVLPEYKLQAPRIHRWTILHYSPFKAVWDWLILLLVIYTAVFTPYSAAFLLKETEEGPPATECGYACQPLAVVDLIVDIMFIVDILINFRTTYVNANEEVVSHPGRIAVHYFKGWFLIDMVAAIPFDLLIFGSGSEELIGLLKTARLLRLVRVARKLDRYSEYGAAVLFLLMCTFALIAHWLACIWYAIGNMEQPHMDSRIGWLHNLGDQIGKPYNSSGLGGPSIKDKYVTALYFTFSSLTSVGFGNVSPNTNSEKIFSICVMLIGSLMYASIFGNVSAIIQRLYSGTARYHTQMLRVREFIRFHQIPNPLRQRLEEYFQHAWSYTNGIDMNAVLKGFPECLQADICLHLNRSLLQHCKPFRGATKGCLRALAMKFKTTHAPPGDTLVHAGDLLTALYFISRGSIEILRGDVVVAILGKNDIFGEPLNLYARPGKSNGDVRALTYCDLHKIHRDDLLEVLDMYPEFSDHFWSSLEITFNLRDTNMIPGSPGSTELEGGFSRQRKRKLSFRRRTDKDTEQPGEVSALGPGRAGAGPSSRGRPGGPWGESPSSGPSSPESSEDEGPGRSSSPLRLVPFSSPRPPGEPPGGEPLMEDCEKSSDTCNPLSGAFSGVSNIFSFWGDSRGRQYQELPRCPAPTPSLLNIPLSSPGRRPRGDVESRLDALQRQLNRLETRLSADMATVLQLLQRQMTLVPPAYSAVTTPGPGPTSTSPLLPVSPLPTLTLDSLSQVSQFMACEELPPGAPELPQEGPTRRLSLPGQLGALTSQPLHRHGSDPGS

For orientation: IC50 means the concentration that gives 50% inhibition. As usually defined, the AUC(0-t) is the area under the concentration-time curve up to a stated or last time point. A higher AUC(0-t) goes with high exposure. The Cmax is the highest concentration seen after dosing. `CC(C)Cc1cc(C(F)F)c(-c2nn[nH]n2)c(N2CCN(Cc3cccnn3)[C@@H](C)C2)c1` [Compound I-4, (S)-3-((4-(3-(difluoromethyl)-5-isobutyl-2-(2H-tetrazol-5-yl)phenyl)-2-methylpiperazin-1-yl)methyl)pyridazine]: the 50% inhibitory concentration (IC50) on AT2R was 4.1 nM. Besides, in data set [1], the AUC(0-t) turned out to be 14100 ng·h/mL and the Cmax is 4380 ng/mL. The concentration for half-maximal inhibition (IC50) on hERG potassium channel was above 30000 nM.

Regarding `CC(C)Cc1cc(OC(F)F)c(-c2nn[nH]n2)c(N2CCN(Cc3cccnn3)[C@@H](C)C2)c1` [Compound I-5, (S)-3-((4-(3-(difluoromethoxy)-5-isobutyl-2-(2H-tetrazol-5-yl)phenyl)-2-methylpiperazin-1-yl)methyl)pyridazine], the IC50 is 2.4 nM on AT2R and 22800 nM at hERG potassium channel. The compound further came in with an exposure AUC(0-t) in data set [2] of 2290 ng·h/mL. The same compound displayed a Cmax in data set [2] of 1320 ng/mL.

`CC(C)Cc1cc(OC(F)(F)F)c(-c2nn[nH]n2)c(N2CCN(Cc3cccnn3)[C@@H](C)C2)c1` [Compound I-6, (S)-3-((4-(5-isobutyl-2-(2H-tetrazol-5-yl)-3-(trifluoromethoxy)phenyl)-2-methylpiperazin-1-yl)methyl)pyridazine] showed an IC50 on AT2R of 3.6 nM.

For `Cc1nnc(CN2CCN(c3cc(CC(C)C)cc(C(F)F)c3-c3nn[nH]n3)C[C@@H]2C)s1` [Compound I-7, (2S)-4-(3-(difluoromethyl)-2-(3H-1,2,3,4-tetrazol-5-yl)-5-isobutylphenyl)-2-methyl-1-((5-methyl-1,3,4-thiadiazol-2-yl)methyl)piperazine], the 50% inhibitory concentration (IC50) on AT2R came out at 8 nM.

`Cc1nnc(CN2CCN(c3cc(CC(C)C)cc(OC(F)F)c3-c3nn[nH]n3)C[C@@H]2C)s1` [Compound I-8, (2S)-4-(3-((difluoromethyl)oxy)-2-(3H-1,2,3,4-tetrazol-5-yl)-5-isobutylphenyl)-2-methyl-1-((5-methyl-1,3,4-thiadiazol-2-yl)methyl) piperazine] registered a 50% inhibitory concentration (IC50) on AT2R of 2.5 nM.

Turning to `CC(C)Cc1cc(F)c(-c2nn[nH]n2)c(N2CCN(Cc3cccnn3)[C@@H](C)C2)c1` [Control Compound I, reference compound], the IC50 worked out at 12 nM on AT2R and 2800 nM on hERG potassium channel. Besides, the AUC(0-t) was 10000 ng·h/mL in data set [1] and 1300 ng·h/mL in data set [2]. Also, the Cmax was 3240 ng/mL in data set [1] and 850 ng/mL in data set [2].
